Patent US12421254B2, “KRAS modulators and uses thereof” (Quanta Therapeutics, Inc., priority 2023, dated 2025)
Like-named read-outs stand apart in the source and are kept apart here.

How the values were obtained:
[1] = target: GST-tagged KRAS-G12D (2-169) (Homo sapiens, UniProt P01116, G12D); experiment: Nucleotide exchange assay (NEA), SOS-mediated, HTRF, KRAS G12D; type: biochemical; details: IC50 extracted at 30 min, 20 nM SOScat
Summary of the method: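 Compound preincubated 1 h at RT with 0.25 nM GST-KRAS-G12D (2-169) and anti-GST Tb donor, then 20 nM SOS1cat (564-1049) and 150 nM GTP-DY-647P1 added; pH 7.3 HEPES buffer with MgCl2 and DTT. HTRF monitored at RT; % inhibition versus DMSO and no-SOS blank, 4-parameter IC50 taken at 30 min.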

[2] = target: GST-tagged KRAS-G12V (2-169) (Homo sapiens, UniProt P01116, G12V); experiment: Nucleotide exchange assay (NEA), SOS-mediated, HTRF, KRAS G12V; type: biochemical; details: Table 4; IC50 extracted at 90 min; 80 nM SOS
Summary of the method: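 GST-KRAS-G12V (2-169), 0.25 nM, pre-incubated 1 h at RT with compound, then SOS1cat (564-1049) 80 nM and GTP-DY-647P1 150 nM added in HEPES pH 7.3 buffer with MgCl2 and DTT. HTRF via anti-GST Tb cryptate read over 90 min; IC50 from 4-parameter fit at 90 min, blanked to no-SOS reactions.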

KRAS G12D/RAF1 = target: T1, KRAS G12D/RAF1 (Homo sapiens, UniProt P01116, G12D); experiment: Protein-protein interaction (PPI) HTRF assay KRAS G12D/RAF1; type: binding; details: Table 2
T1 construct: KRAS (1-169) proteins were expressed in BL21 (DE3)-CodonPlus E. coli; His6-MBP (N, cleaved yes)
Protocol: (§1) When RAS proteins are in the active GTP-bound conformation, they bind the effector protein RAF1 at the N-terminus Ras-binding domain (RBD, residues 52-131) (Tran, et al., 2021). Homogenous time resolved fluorescence (HTRF) was used to monitor the interaction between wt or mutant KRAS and RAF1 or wt NRAS and RAF1. Compounds were assayed in the presence of KRAS G12D/V and RAF1 versus wt KRAS to assess activity against mutant and w.t. KRAS. Similarly, compounds were then assayed in the presence of w.t. NRAS and RAF1 to assess RAS isoform selectivity. In all assay formats, His-tagged RAF1 protein was incubated with the HTRF donor, anti-6His Tb Cryptate gold (Cisbio 61DB10RDF), and biotinylated RAS proteins were incubated with the HTRF acceptor, streptavidin-d2 (CisBio 610SADLA). The intensity of the fluorescence signal emitted is proportional to binding between the two proteins. The donor solution was prepared by mixing 16 nM His-tagged RAF1 in protein dilution buffer with 1:100 anti-6His Tb cryptate in PPI-Terbium detection buffer. 16 nM biotinylated RAS protein was diluted into protein dilution buffer (50 mM Tris-HCl pH 7.5, 150 mM NaCl, 0.1 mM MgCl2, 1 mM TCEP, 0.005% Tween20) and mixed with 1:2000 Streptavidin-d2 diluted in PPI-Terbium detection buffer (CisBio 61DB10RDF). 50× compound in DMSO was mixed with 16 nM KRAS-acceptor solution and incubated for 30 minutes at room temperature. After compound pre-incubation with KRAS, the RAF1 donor solution was added to the KRAS-acceptor solution and incubated for 1 hour at room temperature. The fluorescence signal emitted was monitored at 665 nm and 615 nm using an Envision multimode plate reader. The HTRF ratio (665/615) was calculated and normalized to 0% inhibition in the absence of compound and 100% inhibition in the presence of untagged RAF1 protein. PPI KRAS G12D/RAF1, KRAS G12V/RAF1, w.t. KRAS/RAF1 and NRAS/RAF1 IC50 (uM) values of selected compounds are depicted in Table 3 and Table 4 with compounds having a value <0.1 uM as ++++; ≥0.1 uM to 1 uM as +++; ≥1 uM to 10 uM as ++; ≥10 uM to 100 uM as +; and ≥100 uM as NA.

KRAS G12V/RAF1 = target: T2, KRAS G12V/RAF1 (Homo sapiens, UniProt P01116, G12V); experiment: Protein-protein interaction (PPI) HTRF assay KRAS G12V/RAF1; type: binding; details: Table 3
T2 construct: KRAS (1-169) proteins were expressed in BL21 (DE3)-CodonPlus E. coli; His6-MBP (N, cleaved yes)
Protocol: as §1

phospho-ERK in AGS cells = experiment: pERK In Cell Western (ICW) assay (Method B), AGS; type: cell-based; details: Homo sapiens, Table 2, 3 hours
Protocol: pERK ICW is a high throughput screening assay to evaluate the cellular potency of mutant KRAS small molecule inhibitors. KRAS mutant cell lines AGS, GP2D (KRAS-G12D) as well as SW620 (KRAS-G12V) were purchased from ATCC and maintained respectively in RPMI/DMEM/RPMI medium supplemented with 10% fetal bovine serum.
Cells grown in exponential phase were trypsinized, resuspended in fresh media, and viable cells were counted using a cell counter with Trypan Blue (BioRad TC20). Cells were seeded into 384-well plate (Greiner 781091) at density of 5,000 cells/well for AGS and 10,000 cells/well for GP2D/SW620 and allowed to grow overnight in a 37° C. CO2 incubator. The next day, compounds were dispensed into wells with a ½ log, 9-point serial dilution using a Tecan D300e dispenser and incubated for 3 hours in a 37° C. CO2 incubator. Cells were then fixed with paraformaldehyde (Electron Microscopy Sciences, 15710, 4% final concentration) for 30 min, permeabilized with wash buffer (1×PBS+0.1% Triton X-100) for 30 min and blocked with Odyssey blocking buffer (Li—COR 927-70001) for 1 hour, all at room temperature (RT). Phospho-ERK antibody (CST 4370L) was diluted 1:500 in Odyssey T20 (PBS) antibody diluent (Li—COR 927-75001) and incubated with cells overnight at 4° C. The next day, plates were washed 5× with wash buffer, incubated with IRDye 800 CW, Goat anti-Rabbit secondary antibody (Li—COR 926-32211, 1:800) and DRAQ5 (CST 4084L, 1:5,000) diluted in Odyssey T20 (PBS) antibody diluent for 1 hour, washed 5×, and imaged on an Odyssey CLx imaging system.
For data analysis, signal intensities from 800 (phosphor-ERK) and 700 (DRAQ5) channels were extracted, and phospho-ERK signals were normalized to DRAQ5 signals for each well and percent of blank control values were computed. Data were then imported into Graphpad Prism to compute half-maximal inhibitory concentrations (IC50) using a 4-parameter variable slope model. Z-factor for each plate was computed from signals derived from wells treated with either DMSO or 5 μM of control compound. AGS pERK ICW (Method B) IC50 (uM) values of selected compounds are depicted in Table 2 with compounds having a value ≥0.001 uM to 0.01 uM as ++++; ≥0.01 uM to 0.1 uM as +++; ≥0.1 uM to 1 uM as ++; ≥1 uM to 10 uM as + and ≥10 uM as NA.

[3] = system: phospho-ERK in GP2D (KRAS-G12D) cells; experiment: pERK In Cell Western (ICW) assay (Method B), GP2D; type: cell-based; details: GP2d, 3 h, Table 4
Summary of the method: (§2)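 SW620 (KRAS-G12V), GP2D (KRAS-G12D) and AGS cells, seeded overnight, were exposed to compounds (½-log, 9-point) for 3 h at 37°C, then fixed and stained for phospho-ERK. Infrared imaging; pERK normalized to DRAQ5 DNA stain, expressed as percent of blank control, IC50 by 4-parameter fit.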

[4] = system: phospho-ERK in SW620 (KRAS-G12V) cells; experiment: pERK In Cell Western (ICW) assay (Method B), SW620; type: cell-based; details: Homo sapiens, SW-620, 3 h, Table 4
Summary of the method: as §2

[5] = Table 2, read-out: NEA-G12D (uM) IC50
[6] = Table 4, read-out: NEA G12D IC50

T1 sequence (P01116 with tags, fused parts or gaps isoform P01116-2 G12D): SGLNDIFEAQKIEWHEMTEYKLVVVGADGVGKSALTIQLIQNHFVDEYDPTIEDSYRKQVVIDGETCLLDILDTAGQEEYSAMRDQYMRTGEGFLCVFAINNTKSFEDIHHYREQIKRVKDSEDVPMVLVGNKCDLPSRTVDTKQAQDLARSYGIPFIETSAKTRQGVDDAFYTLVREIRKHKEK
Chain of GST-tagged KRAS-G12V (2-169) (P01116 2-169 isoform P01116-2 G12V): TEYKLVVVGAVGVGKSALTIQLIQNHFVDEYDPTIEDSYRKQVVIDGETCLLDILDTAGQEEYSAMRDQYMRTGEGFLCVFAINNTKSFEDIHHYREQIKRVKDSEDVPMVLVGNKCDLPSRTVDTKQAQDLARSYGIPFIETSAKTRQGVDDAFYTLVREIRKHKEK
Chain of GST-tagged KRAS-G12D (2-169) (P01116 2-169 isoform P01116-2 G12D): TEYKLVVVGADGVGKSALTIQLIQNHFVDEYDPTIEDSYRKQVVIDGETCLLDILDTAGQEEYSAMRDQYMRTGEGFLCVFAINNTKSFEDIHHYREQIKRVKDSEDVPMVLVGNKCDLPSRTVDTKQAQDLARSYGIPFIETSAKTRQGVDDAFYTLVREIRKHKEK
T2 sequence (P01116 with tags, fused parts or gaps isoform P01116-2 G12V): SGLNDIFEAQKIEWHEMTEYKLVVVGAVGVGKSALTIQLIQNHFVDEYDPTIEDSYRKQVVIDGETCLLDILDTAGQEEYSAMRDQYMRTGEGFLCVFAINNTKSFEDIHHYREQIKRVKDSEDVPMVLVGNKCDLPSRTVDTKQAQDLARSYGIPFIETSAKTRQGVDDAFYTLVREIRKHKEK

Row | SMILES | IC50 [1, 5] | IC50 [1, 6] | IC50 [2] | IC50 (KRAS G12D/RAF1) | IC50 (KRAS G12V/RAF1) | IC50 (phospho-ERK in AGS cells) | IC50 [3] | IC50 [4]
1 | N#Cc1c(N)sc2c1C1(CC2)CCN(c2nc(OCC3(CN4CCOCC4)CC3)nc(N3C[C@H]4CC[C@@H](C3)N4)n2)C1 (stereo partly drawn) [Compound 9, 2-amino-1′-[4-[(1R,5S)-3,8-diazabicyclo[3.2.1]octan-3-yl]-6-[[1-(morpholinomethyl)cyclopropyl]methoxy]-1,3,5-triazin-2-yl]spiro[5,6-dihydrocyclopenta[b]thiophene-4,3′-pyrrolidine]-3-carbonitrile] | < 0.01 µM | < 0.01 µM | 1000 to 20000 nM | 1 to 10 µM | 10 to 100 µM | 0.1 to 1 µM | 10 to 100 nM | 
2 | N#Cc1c(N)sc2c1C1(CC2)CCN(c2nc(OC[C@@]34CCCN3C[C@H](F)C4)nc(N3CCCC(C#N)CC3)n2)C1 (stereo partly drawn) [Compound 12, 2-amino-1′-[4-(4-cyanoazepan-1-yl)-6-[[(2R,8S)-2-fluoro-1,2,3,5,6,7-hexahydropyrrolizin-8-yl]methoxy]-1,3,5-triazin-2-yl]spiro[5,6-dihydrocyclopenta[b]thiophene-4,3′-pyrrolidine]-3-carbonitrile] | 0.1 to 1 µM | 0.1 to 1 µM | 100 to 1000 nM | 10 to 100 µM | 10 to 100 µM |  |  | 
3 | CC(C#N)COc1nc(OC[C@@]23CCCN2C[C@H](F)C3)nc(N2CC3(CCc4sc(N)c(C#N)c43)C2)n1 (stereo partly drawn) [Compound 17, 2-amino-1′-[4-(2-cyanopropoxy)-6-[[(2R,8S)-2-fluoro-1,2,3,5,6,7-hexahydropyrrolizin-8-yl]methoxy]-1,3,5-triazin-2-yl]spiro[5,6-dihydrocyclopenta[b]thiophene-4,3′-azetidine]-3-carbonitrile] | 0.1 to 1 µM | 0.1 to 1 µM | 10 to 100 nM | 10 to 100 µM | 10 to 100 µM |  |  | 
4 | CCN(c1nc(OC[C@]2(CO)CCCN2C)nc(N2CC3(C2)SCc2sc(N)c(C#N)c23)n1)[C@H](C)c1cccnc1N [Compound 213, 2-amino-1′-[4-[[(1R)-1-(2-amino-3-pyridyl)ethyl]-ethyl-amino]-6-[[2-(hydroxymethyl)-1-methyl-pyrrolidin-2-yl]methoxy]-1,3,5-triazin-2-yl]spiro[6H-thieno[3,4-b]thiophene-4,3′-azetidine]-3-carbonitrile] |  | < 0.01 µM | < 10 nM |  |  |  | 10 to 100 nM | 10 to 100 nM
5 | CCN(c1nc(OCC23CCCN2CCN(C)C3)nc(N2CC3(C2)SCc2sc(N)c(C#N)c23)n1)[C@H](C)c1cccnc1N (stereo partly drawn) [Compound 223, 2-amino-1′-[4-[[(1R)-1-(2-amino-3-pyridyl)ethyl]-ethyl-amino]-6-[(2-methyl-1,3,4,6,7,8-hexahydropyrrolo[1,2-a]pyrazin-8a-yl)methoxy]-1,3,5-triazin-2-yl]spiro[6H-thieno[3,4-b]thiophene-4,3′-azetidine]-3-carbonitrile] |  | < 0.01 µM | < 10 nM |  |  |  | 10 to 100 nM | 10 to 100 nM
6 | CCN(c1nc(OC[C@@]23CCCN2C[C@H](F)C3)nc(N2CC3(C2)c2c(sc(N)c2C#N)CN3C)n1)[C@H](C)c1cccnc1N [Compound 226, 2-amino-1′-[4-[[(1R)-1-(2-amino-3-pyridyl)ethyl]-ethyl-amino]-6-[[(2R,8S)-2-fluoro-1,2,3,5,6,7-hexahydropyrrolizin-8-yl]methoxy]-1,3,5-triazin-2-yl]-5-methyl-spiro[6H-thieno[2,3-c]pyrrole-4,3′-azetidine]-3-carbonitrile] |  | < 0.01 µM | < 10 nM |  |  |  | 10 to 100 nM | 10 to 100 nM
7 | CC(C#N)N(CC(F)F)c1nc(OC[C@@]23CCCN2C[C@H](F)C3)nc(N2CC3(C2)SCc2sc(N)c(C#N)c23)n1 (stereo partly drawn) [Compound 258, 2-amino-1′-[4-[1-cyanoethyl(2,2-difluoroethyl)amino]-6-[[(2R,8S)-2-fluoro-1,2,3,5,6,7-hexahydropyrrolizin-8-yl]methoxy]-1,3,5-triazin-2-yl]spiro[6H-thieno[2,3-c]thiophene-4,3′-azetidine]-3-carbonitrile] |  | < 0.01 µM | < 10 nM |  |  |  | 10 to 100 nM | 10 to 100 nM
8 | CC(CO)N(c1nc(OC[C@@]23CCCN2C[C@H](F)C3)nc(N2CC3(C2)SCc2sc(N)c(C#N)c23)n1)C1(C#N)CC1 (stereo partly drawn) [Compound 262, 2-amino-1′-[4-[(1-cyanocyclopropyl)-(2-hydroxy-1-methyl-ethyl)amino]-6-[[(2R,8S)-2-fluoro-1,2,3,5,6,7-hexahydropyrrolizin-8-yl]methoxy]-1,3,5-triazin-2-yl]spiro[6H-thieno[3,4-b]thiophene-4,3′-azetidine]-3-carbonitrile] |  | < 0.01 µM | < 10 nM |  |  |  | 10 to 100 nM | 10 to 100 nM
9 | C[C@H](c1cccnc1N)N(c1nc(OC[C@@]23CCCN2C[C@H](F)C3)nc(N2CC3(C2)SCc2sc(N)c(C#N)c23)n1)C1CC1 [Compound 264, 2-amino-1′-[4-[[(1R)-1-(2-amino-3-pyridyl)ethyl]-cyclopropyl-amino]-6-[[(2R,8S)-2-fluoro-1,2,3,5,6,7-hexahydropyrrolizin-8-yl]methoxy]-1,3,5-triazin-2-yl]spiro[6H-thieno[3,4-b]thiophene-4,3′-azetidine]-3-carbonitrile] |  | < 0.01 µM | < 10 nM |  |  |  | 10 to 100 nM | < 10 nM
